Each structure is given as a SMILES string.

The target of one assay is T1, integrin alpha5beta1 (Homo sapiens, UniProt P05556+P08648).
T1 construct: The integrin alpha5beta1 extracellular domain Fc-fusion was expressed and purified; made in house
Nature of the assay: Alpha5beta1-Fibronectin binding assay (competitive ELISA). The settings on record: inhibition of integrin binding to fibronectin; read-out: IC50 alpha5beta1 in nM. Here is the method:
The optimal concentrations of integrin and ligand were selected from ELISA binding studies with variable concentrations of both to obtain optimal signal noise ratio for further studies. IC50 studies were performed with fixed concentration of ligand and integrin and a serial dilution of inhibitor. The plates were measured with SpectraMax Plus reader (Molecular Devices). The resulting inhibition curves were analyzed using SoftMaxPro 4.0 software, the turning point describes the IC50 value.
Fibronectin and Vitronectin were purchased from Sigma, fibrinogen from Calbiochem. (EMD Biosciences, Darmstadt, Germany) The integrin alpha5beta1 extracellular domain Fc-fusion was expressed and purified as described in (Coe, 2001, JBC, 276, 35854). Integrins alphavbeta3 and alphavbeta5 were purchased from Chemicon (Chemicon Europe, Germany) and alphaIIbbeta3 form Kordia (Kordia Life Science, Leiden, Netherlands)
Fibronectin was diluted with coating buffer (15 mM Na2CO3, 35 mM NaHCO3, pH9.6) and coated with 100 μL/well to Nunc-Immuno maxisorp plates (Nalge Nunc Europe Ltd) over night at 4° C. After discarding the coating solution plates were washed 3 times with buffer 1 ([…], pH7.6, 150 mM NaCl, 1 mM […], 1 mg/mL BSA) and blocked with 100 μL blocking buffer (3% BSA in PBS 0.1% Tween20) for 1 hour at room temperature. After washing the blocked plates (3 times) with buffer 1, integrin (50 μL) and either inhibitor (serial dilution in buffer 1) or buffer 1 (50 μL) were added to the wells and incubated for one hour at RT. Plates were then washed (3 times) with buffer 1 and incubated with 100 μL of anti-human-Fc-HRP antibody conjugate (Sigma-Aldrich, Taufkirchen, Germany) in buffer 1 for 1 hour at RT. After additional washing steps (3 times) with buffer 1 50 μL of HRP substrate solution TMB (Seramun, Germany) were added to the wells. Colour development was stopped after 3-5 minutes with 50 μL 1M H2SO4. The developed colour was measured at 450 nm and analyzed as described above.
(In general: In an ELISA, binding on a coated surface is turned into a signal by an enzyme label.)
`C#CCOC(=O)N1C[C@H](OCC(=O)NC[C@H](NS(=O)(=O)c2c(C)cc(C)cc2C)C(=O)O)C[C@H]1CNc1ccccn1` [Compound 44, 4-{[2-Carboxy-2-(2,4,6-trimethyl-benzenesulfonylamino)-ethylcarbamoyl]-methoxy}-2-(pyridin-2-ylaminomethyl)-pyrrolidine-1-carboxylic acid prop-2-ynyl ester]: the IC50 is 5.8 nM.
Still for that read-out and setting: under `CCC(=O)N1C[C@H](OCC(=O)NC[C@H](NS(=O)(=O)c2c(C)cc(C)cc2C)C(=O)O)C[C@H]1CNc1ccccn1` [Compound 38, 3-{2-[1-Propionyl-5-(pyridin-2-ylaminomethyl)-pyrrolidin-3-yloxy]-acetylamino}-2-(2,4,6-trimethyl-benzenesulfonylamino)-propionic acid] stands 11.9 nM; under `Cc1cc(C)c(S(=O)(=O)N[C@@H](CNC(=O)CO[C@@H]2C[C@@H](CNc3ccccn3)N(S(=O)(=O)Cc3ccccc3)C2)C(=O)O)c(C)c1` [Compound 15, 3-{2-[1-Phenylmethanesulfonyl-5-(pyridin-2-ylaminomethyl)-pyrrolidin-3-yloxy]-acetylamino}-2-(2,4,6-trimethyl-benzenesulfonylamino)-propionic acid], 11.3 nM; under `Cc1ccc(CNC(=O)N2C[C@H](OCC(=O)NC[C@H](NS(=O)(=O)c3c(C)cc(C)cc3C)C(=O)O)C[C@H]2CNc2ccccn2)cc1` [Compound 25, 3-{2-[1-(4-Methyl-benzylcarbamoyl)-5-(pyridin-2-ylaminomethyl)-pyrrolidin-3-yloxy]-acetylamino}-2-(2,4,6-trimethyl-benzenesulfonylamino)-propionic acid], 18.1 nM.

The same assay, now with this note: method of section 1.1; read-out: Group (binding activities to integrin alpha5beta1).
On to `O=C(CO[C@@H]1C[C@@H](CNc2ccccn2)N(C(=O)OCc2ccccc2)C1)NC[C@H](NC(=O)c1cc(C(F)(F)F)cc(C(F)(F)F)c1)C(=O)O` [Compound 86, 4-{[2-(3,5-Bis-trifluoromethyl-benzoylamino)-2-carboxy-ethylcarbamoyl]-methoxy}-2-(pyridin-2-ylaminomethyl)-pyrrolidine-1-carboxylic acid benzyl ester], for which the IC50 was over 500 nM.
On the same count and under the same terms, under `Cc1cc(C)c(S(=O)(=O)N[C@@H](CNC(=O)CO[C@@H]2C[C@@H](CNc3cc[nH]n3)N(C(=O)OCc3ccccc3)C2)C(=O)O)c(C)c1` [Compound 135, 4-{[2-Carboxy-2-(2,4,6-trimethyl-benzenesulfonylamino)-ethylcarbamoyl]-methoxy}-2-[(1H-pyrazol-3-ylamino)-methyl]-pyrrolidine-1-carboxylic acid benzyl ester] stands over 500 nM; under `Cc1cc(C)c(S(=O)(=O)N[C@@H](CNC(=O)CO[C@@H]2C[C@@H](CNc3ccccn3)N(C(=O)C(F)(F)C(F)(F)C(F)(F)C(F)(F)C(F)(F)C(F)(F)C(F)(F)F)C2)C(=O)O)c(C)c1` [Compound 63, 3-{2-[1-(2,2,3,3,4,4,5,5,6,6,7,7,8,8,8-Pentadecafluoro-octanoyl)-5-(pyridin-2-ylaminomethyl)-pyrrolidin-3-yloxy]-acetylamino}-2-(2,4,6-trimethyl-benzenesulfonylamino)-propionic acid], over 500 nM; under `C#CCOC(=O)N1C[C@H](OCC(=O)NC[C@H](NS(=O)(=O)c2c(C)cc(C)cc2C)C(=O)O)C[C@H]1CNc1ccccn1` [Compound 44, 4-{[2-Carboxy-2-(2,4,6-trimethyl-benzenesulfonylamino)-ethylcarbamoyl]-methoxy}-2-(pyridin-2-ylaminomethyl)-pyrrolidine-1-carboxylic acid prop-2-ynyl ester], under 10 nM.
`O=C(CO[C@@H]1C[C@@H](CNc2ccccn2)N(C(=O)OCc2ccccc2)C1)NC[C@H](NC(=O)Nc1ccc(-c2ccccc2)cc1)C(=O)O` [Compound 80, 4-{[2-(3-Biphenyl-4-yl-ureido)-2-carboxy-ethylcarbamoyl]-methoxy}-2-(pyridin-2-ylaminomethyl)-pyrrolidine-1-carboxylic acid benzyl ester]: the IC50 was in the range of 10 to 500 nM.
Still for that read-out and setting: under `Cc1cc(C)c(S(=O)(=O)N[C@@H](CNC(=O)CO[C@@H]2C[C@@H](CNc3ccccn3)N(C(=O)CC3CCCC3)C2)C(=O)O)c(C)c1` [Compound 35, 3-{2-[1-(2-Cyclopentyl-acetyl)-5-(pyridin-2-ylaminomethyl)-pyrrolidin-3-yloxy]-acetylamino}-2-(2,4,6-trimethyl-benzenesulfonylamino)-propionic acid] stands 10 to 500 nM; under `COc1cccc(CC(=O)N2C[C@H](OCC(=O)NC[C@H](NS(=O)(=O)c3c(C)cc(C)cc3C)C(=O)O)C[C@H]2CNc2ccccn2)c1` [Compound 36, 3-{2-[1-[2-(3-Methoxy-phenyl)-acetyl]-5-(pyridin-2-ylaminomethyl)-pyrrolidin-3-yloxy]-acetylamino}-2-(2,4,6-trimethyl-benzenesulfonylamino)-propionic acid], 10 to 500 nM.
Same read-out and setting: in the case of `CCC(=O)N1C[C@H](OCC(=O)NC[C@H](NS(=O)(=O)c2c(C)cc(C)cc2C)C(=O)O)C[C@H]1CNc1ccccn1` [Compound 38, 3-{2-[1-Propionyl-5-(pyridin-2-ylaminomethyl)-pyrrolidin-3-yloxy]-acetylamino}-2-(2,4,6-trimethyl-benzenesulfonylamino)-propionic acid] it was 10 to 500 nM; in that of `CC(C)c1cc(C(C)C)c(C(=O)N[C@@H](CNC(=O)CO[C@@H]2C[C@@H](CNc3ccccn3)N(C(=O)OCc3ccccc3)C2)C(=O)O)c(C(C)C)c1` [Compound 126, 4-{[2-Carboxy-2-(2,4,6-triisopropyl-benzoylamino)-ethylcarbamoyl]-methoxy}-2-(pyridin-2-ylaminomethyl)-pyrrolidine-1-carboxylic acid benzyl ester], over 500 nM; in that of `Cc1cc(C)c(S(=O)(=O)N[C@@H](CNC(=O)CO[C@@H]2C[C@@H](CNc3ccccn3)N(S(=O)(=O)Cc3ccccc3)C2)C(=O)O)c(C)c1` [Compound 15, 3-{2-[1-Phenylmethanesulfonyl-5-(pyridin-2-ylaminomethyl)-pyrrolidin-3-yloxy]-acetylamino}-2-(2,4,6-trimethyl-benzenesulfonylamino)-propionic acid], 10 to 500 nM.
The same measure, in the same setting: under `CS(=O)(=O)NC(CNC(=O)COC1CC(CNc2ccccn2)N(C(=O)OCc2ccccc2)C1)C(=O)O` (stereo not drawn) [Compound 69, 4-[(2-Carboxy-2-methanesulfonylamino-ethylcarbamoyl)-methoxy]-2-(pyridin-2-ylaminomethyl)-pyrrolidine-1-carboxylic acid benzyl ester] stands over 500 nM; under `Cc1cc(C)c(S(=O)(=O)N[C@@H](CNC(=O)CO[C@@H]2C[C@@H](CNc3ccccn3)N(C(=O)CC(C)(C)C)C2)C(=O)O)c(C)c1` [Compound 31, 3-{2-[1-(3,3-Dimethyl-butyryl)-5-(pyridin-2-ylaminomethyl)-pyrrolidin-3-yloxy]-acetylamino}-2-(2,4,6-trimethyl-benzenesulfonylamino)-propionic acid], under 10 nM; under `O=C(CO[C@@H]1C[C@@H](CNc2ccccn2)N(C(=O)OCc2ccccc2)C1)NC[C@H](NC(=O)c1ccccc1[N+](=O)[O-])C(=O)O` [Compound 96, 4-{[2-Carboxy-2-(2-nitro-benzoylamino)-ethylcarbamoyl]-methoxy}-2-(pyridin-2-ylaminomethyl)-pyrrolidine-1-carboxylic acid benzyl ester], under 10 nM.
As to `Cc1cc(C)c(S(=O)(=O)N[C@@H](CNC(=O)CO[C@@H]2C[C@@H](CNc3ccccn3)N(C(=O)OCC(C)C)C2)C(=O)O)c(C)c1` [Compound 41, 4-{[2-Carboxy-2-(2,4,6-trimethyl-benzenesulfonylamino)-ethylcarbamoyl]-methoxy}-2-(pyridin-2-ylaminomethyl)-pyrrolidine-1-carboxylic acid isobutyl ester], the IC50 was under 10 nM.
The same measure, in the same setting: in the case of `O=C(CO[C@@H]1C[C@@H](CNc2ccccn2)N(C(=O)OCc2ccccc2)C1)NC[C@H](NC(=O)C1CCCCC1)C(=O)O` [Compound 91, 4-{[2-Carboxy-2-(cyclohexanecarbonyl-amino)-ethylcarbamoyl]-methoxy}-2-(pyridin-2-ylaminomethyl)-pyrrolidine-1-carboxylic acid benzyl ester] it was under 10 nM; in that of `O=C(CO[C@@H]1C[C@@H](CNc2ccccn2)N(C(=O)OCc2ccccc2)C1)NC[C@H](NC(=O)c1ccccc1Cl)C(=O)O` [Compound 97, 4-{[2-Carboxy-2-(2-chloro-benzoylamino)-ethylcarbamoyl]-methoxy}-2-(pyridin-2-ylaminomethyl)-pyrrolidine-1-carboxylic acid benzyl ester], under 10 nM.
The same measure, in the same setting: under `O=C(CO[C@@H]1C[C@@H](CNc2ccccn2)N(C(=O)OCc2ccccc2)C1)NC[C@H](NC(=O)C1(c2ccccc2)CC1)C(=O)O` [Compound 106, 4-({2-Carboxy-2-[(1-phenyl-cyclopropanecarbonyl)-amino]-ethylcarbamoyl}-methoxy)-2-(pyridin-2-ylaminomethyl)-pyrrolidine-1-carboxylic acid benzyl ester] stands 10 to 500 nM.
With `Cc1cc(C)c(S(=O)(=O)N[C@@H](CNC(=O)CO[C@@H]2C[C@@H](CNc3ccccn3)N(CCCc3ccccc3)C2)C(=O)O)c(C)c1` [Compound 18, 3-{2-[1-(3-Phenyl-propyl)-5-(pyridin-2-ylaminomethyl)-pyrrolidin-3-yloxy]-acetylamino}-2-(2,4,6-trimethyl-benzenesulfonylamino)-propionic acid], the IC50 lay in the range of 10 to 500 nM.
Still for that read-out and setting: in the case of `Cc1ccc(CNC(=O)N2C[C@H](OCC(=O)NC[C@H](NS(=O)(=O)c3c(C)cc(C)cc3C)C(=O)O)C[C@H]2CNc2ccccn2)cc1` [Compound 25, 3-{2-[1-(4-Methyl-benzylcarbamoyl)-5-(pyridin-2-ylaminomethyl)-pyrrolidin-3-yloxy]-acetylamino}-2-(2,4,6-trimethyl-benzenesulfonylamino)-propionic acid] it was 10 to 500 nM; in that of `Cc1cc(C)c(CNC(CNC(=O)COC2CC(CNc3ccccn3)N(C(=O)OCc3ccccc3)C2)C(=O)O)c(C)c1` (stereo not drawn) [Compound 82, 4-{[2-Carboxy-2-(2,4,6-trimethyl-benzylamino)-ethylcarbamoyl]-methoxy}-2-(pyridin-2-ylaminomethyl)-pyrrolidine-1-carboxylic acid benzyl ester], over 500 nM.
